From article PMC12307812 (Nature Communications, 2025)
Like-named read-outs stand apart in the source and are kept apart here.

How the values were obtained:
[1] = molecular target: T1, Recombinant Human TMPRSS2 (Homo sapiens, UniProt O15393); assay: TMPRSS2 biochemical assay (Boc-Gln-Ala-Arg-AMC fluorogenic substrate)
T1 construct: human TMPRSS2 residues 106492, N-terminal 6x His-tag; 6x His-tag (N); purchased Cusabio CSB-YP023924HU; host or cells: yeast
Experimental: Inhibitors of TMPRSS2 were tested using a high throughput activity assay. […] TMPRSS2 (5 µl, 0.018 mg/ml) in assay buffer (50 mM Tris pH 8, 150 mM NaCl, 0.01% Tween20) was dispensed to that, using a BioRAPTR (Beckman Coulter), for a total assay volume of 5 µl.
After incubation at room temperature for 1 h, fluorescence was measured. […] Raw plate reads for each titration point were normalized relative to a positive control containing no enzyme (0% activity, full inhibition) and a negative control containing DMSO-only wells (100% activity, basal activity). Data normalization was performed using GraphPad Prism (GraphPad Software, San Diego, CA).
We employed the curve fitting algorithm available in the SciPy package (version 1.10.1)[61] to derive the Hill slope and the IC50 value, along with their corresponding error estimates.

TMPRSS2 = tested on: TMPRSS2; design: method as in earlier work; details: top 50 compounds by AUC, Figure 2 source data; cited from earlier work
[2] = first round of screening on the NCATS in-house library (docking score selection), read-out: IC50
[3] = second round of screening on the NCATS in-house library (dynamic h-score selection), read-out: IC50

T1 sequence (O15393 106-492 limits assumed): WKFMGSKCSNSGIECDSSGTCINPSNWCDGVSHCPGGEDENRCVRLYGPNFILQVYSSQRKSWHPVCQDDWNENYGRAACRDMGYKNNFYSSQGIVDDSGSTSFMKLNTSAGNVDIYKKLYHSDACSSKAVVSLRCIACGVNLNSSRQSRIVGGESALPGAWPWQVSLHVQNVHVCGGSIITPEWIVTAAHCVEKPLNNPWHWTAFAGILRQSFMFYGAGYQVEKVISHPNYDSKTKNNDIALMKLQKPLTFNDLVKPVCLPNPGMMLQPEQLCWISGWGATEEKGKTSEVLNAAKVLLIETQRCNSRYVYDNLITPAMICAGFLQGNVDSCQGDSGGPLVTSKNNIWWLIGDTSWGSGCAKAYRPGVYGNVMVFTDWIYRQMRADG

Compound	IC50 [1, 2]	max response (%) (TMPRSS2)	also measured
CCOC(=O)c1c(-c2ccc(OC)cc2)oc2ccc(OCc3ccc(F)cc3F)cc12 [NCGC00099773-01]	31.6 µM		
Cc1cccc(-n2ncc3c(Nc4ccc(Oc5ccc(Cl)cc5)cc4)ncnc32)c1 [NCGC00138820-01]	12.6 µM		
N=C(N)c1ccc(OCCCCCOc2ccc(C(=N)N)cc2)cc1 [NCGC00179034-07]		-64.313%	
CCOC(=O)Cn1cccc1-c1nc(-c2ccc(OC)cc2)c(-c2ccc(OC)cc2)s1 [NCGC00182996-01]		-15.3817%	
O=C(OCC1CCCO1)c1ccc2c(c1)N(Cc1ccc(F)cc1)C(=O)c1ccccc1S2(=O)=O (stereo not drawn) [NCGC00127812-01]			IC50 [1, 3]: 15.8 µM
CC(=O)Nc1cccc(-c2cc3c(ccn3C)c(C(=O)NCc3c(C)cc(C)[nH]c3=O)n2)c1 [NCGC00411690-01]	17.8 µM		
Nc1n[nH]c(CNc2cc(-c3ccc(F)cc3)nc3ccnn23)n1 [NCGC00434595-01]	19.9 µM		
Cl.NCCNC(=O)c1ccc(Cl)cn1 [NCGC00167737-02]		-9.8855%	
CC(CCc1ccccc1)NC(C)C(O)c1ccc(O)cc1 (stereo not drawn) [NCGC00015716-09]		-20.1145%	
CC12CCC(CC1=O)C2(C)C (stereo not drawn) [NCGC00090730-03]		-1.87%	
O=C(OCC(O)CO)c1ccccc1Nc1ccnc2c(C(F)(F)F)cccc12 (stereo not drawn) [NCGC00249912-01]	31.6 µM		
COC(=O)c1ccc(Nc2nc(-c3ccc(C)cc3)nc3ccccc23)cc1 [NCGC00099825-01]	17.8 µM		
CN[C@H]1C[C@@H](N)[C@H](O)[C@@H](O[C@@H]2O[C@H](CO)[C@H](O)[C@@H]3OC4(O[C@H]23)O[C@H]([C@@H](N)CO)[C@H](O)[C@H](O)[C@H]4O)[C@@H]1O (stereo partly drawn) [NCGC00188433-02]		-14.1688%	
C[C@]12CCC(=O)C=C1CC[C@@H]1[C@@H]2[C@@H](O)C[C@@]2(C)[C@H]1CC[C@]2(O)C(=O)CO [NCGC00022848-17]		-0.7252%	
O=c1c(O)c(-c2ccc(O)c(O)c2)oc2cc(O)cc(O)c12 [NCGC00015870-27]		-35.5344%	
COc1ccc(-c2cc(C(=O)Oc3ccc(C)c(C)c3)c3ccccc3n2)cc1 [NCGC00099485-01]	15.8 µM		
CC(=O)Oc1cc(C(C)C)c(OCCN(C)C)cc1C [NCGC00015678-10]		-9.504%	
Cc1cc(C)c(CNC(=O)c2nc(-c3cccc(C(F)(F)F)c3)cc3[nH]ccc23)c(=O)[nH]1 [NCGC00411596-01]	8.91 µM		
CCCCC(=O)Oc1ccc2oc(-c3ccc(OC)cc3)cc(=O)c2c1 [NCGC00100604-01]	12.6 µM		
Fc1cc(F)cc(Cc2nc3nccc(-c4cc5ccccc5o4)n3n2)c1 [NCGC00424555-01]	12.6 µM		
Cl.NCC1CCC(C(=O)Oc2ccc(CCC(=O)O)cc2)CC1 (stereo not drawn) [NCGC00164584-03]		-89.9618%	

Compound	IC50 [1, 2]	max response (%) (TMPRSS2)	also measured
CCOC(=O)CCN(C(=O)c1ccc2c(c1)nc(CNc1ccc(C(=N)N)cc1)n2C)c1ccccn1 [dabigatran ethyl ester]			IC50 ([1]; hits from NCATS in-house library screening, read-out: IC50, TMPRSS2 biochemical assay): 2.24 µM
Cc1cc(C)cc(OCC2CNC(=O)O2)c1 (stereo not drawn) [NCGC00095116-05]		-5.458%	
CCCNCC(O)COc1ccccc1C(=O)CCc1ccccc1 (stereo not drawn) [NCGC00015819-15]		-5.725%	
Nc1ncnc2nc[nH]c12 [NCGC00094856-05]		-3.511%	
C=CCN1CC[C@]23CCCC[C@H]2[C@H]1Cc1ccc(O)cc13 [NCGC00162247-06]		-23.7786%	
Cc1cc(-c2cc3c(nc2-c2ccccc2)nc(C(=O)NCCN(C)C)n3C)ccn1 [NCGC00417822-01]			IC50 [1, 3]: 19.9 µM
COC(=O)c1ccc(OC)c(Cn2c(=O)n(-c3cccc(Cl)c3)c(=O)c3c2c2cc(C)ccc2n3C)c1 [NCGC00104930-01]	31.6 µM		
CCOC(=O)COc1ccc2c(=O)cc(-c3ccccc3)oc2c1 [NCGC00182622-03]		-10.6731%	
CC(C(=O)O)c1ccc(C(=O)c2cccs2)cc1 (stereo not drawn) [NCGC00094916-06]		-15.5344%	
O=C(O)CCNC(=O)c1ccc(N=Nc2ccc(O)c(C(=O)O)c2)cc1 [NCGC00164634-02]		-22.1756%	
CC(C)N(CCC(C(N)=O)(c1ccccc1)c1ccccn1)C(C)C (stereo not drawn) [NCGC00015358-18]		-7.9771%	
CC[C@H](C)[C@H]1O[C@]2(C=C[C@@H]1C)C[C@@H]1C[C@@H](C/C=C(\C)[C@@H](O[C@H]3C[C@H](OC)[C@@H](O[C@H]4C[C@H](OC)[C@@H](O)[C@H](C)O4)[C@H](C)O3)[C@@H](C)/C=C/C=C3\CO[C@@H]4[C@H](O)C(C)=C[C@@H](C(=O)O1)[C@]34O)O2 [NCGC00168290-05]		-26.1435%	
Nc1nn(-c2ccccc2)nc1C(=O)OCc1ccccc1 [NCGC00102837-01]			IC50 [1, 3]: 17.8 µM
CC1(C)O[C@@H]2C[C@H]3[C@@H]4CCC5=CC(=O)C=C[C@]5(C)[C@@]4(F)[C@@H](O)C[C@]3(C)[C@]2(C(=O)CO)O1 [NCGC00023193-06]		-22.5573%	
COC(=O)CNC(=O)c1nc(-c2cccc(C(F)(F)F)c2)c2ccccn12 [NCGC00476320-01]	15.8 µM		
Cc1ccc(S(=O)(=O)NC(=O)NN2CC3CCCC3C2)cc1 (stereo not drawn) [NCGC00095107-09]		-9.733%	
CC=CC1C(C(=O)OCc2c(F)c(F)c(COC)c(F)c2F)C1(C)C (stereo not drawn) [NCGC00319021-01]		-16.0283%	
CN(C/C=C/c1ccccc1)Cc1cccc2ccccc12.Cl [NCGC00179332-03]		-15.3589%	
COc1cc(N)c(Cl)cc1C(=O)NC1CCN(Cc2ccccc2)CC1 [NCGC00016951-05]		-0.1908%	
O=C(NCc1ccc(-c2cnc3c(Oc4ccccc4)nccn23)cc1)c1ccn[nH]1 [NCGC00413991-01]	35.5 µM		
CC(=O)Oc1cccc(O)c1 [NCGC00095054-05]		-8.588%	

Compound	IC50 [1, 2]	max response (%) (TMPRSS2)	also measured
OCCn1cc(-c2cnc3nnn(Cc4ccc5ncccc5c4)c3n2)cn1 [NCGC00263161-11]	19.9 µM		
CC(=O)Nc1ccc(CN2C(=O)OC3(CCN(C(=O)c4cccc(C#N)c4)CC3)C2(C)c2ccccc2)cc1 (stereo not drawn) [NCGC00415676-01]			IC50 [1, 3]: 31.6 µM
N=C(N)c1ccc2cc(OC(=O)c3ccc(N=C(N)N)cc3)ccc2c1 [NCGC00160398-05]		-96.6794%	
CCCCc1cc2ccccc2c(OCCN(C)C)n1 [NCGC00016618-04]		-11.3359%	
CCOc1ccc(-n2nc(CO)c(C(=O)NCC(c3ccccc3)c3ccccc3)n2)cc1 [NCGC00117127-01]	22.4 µM		
COC(=O)c1ccccc1NC(=O)CCCS(=O)(=O)c1nc(-c2ccccc2OC)cc(C(F)(F)F)n1 [NCGC00103995-01]	14.1 µM		
CCC(=O)c1ccc2c(c1)N(CCCN(C)C)c1ccccc1S2.Cl [NCGC00015838-06]		-16.7557%	
CS(=O)(=O)O.C[C@H](N)C(=O)N[C@@H](C)C(=O)NC1[C@H]2CN(c3nc4c(cc3F)c(=O)c(C(=O)O)cn4-c3ccc(F)cc3F)C[C@@H]12 (stereo partly drawn) [NCGC00261969-01]		-25.1766%	
COc1ccc(CN2CCNCC2)c(OC)c1OC [NCGC00016697-04]		-13.9313%	
CN(C(=O)C(Cl)Cl)c1ccc(OC(=O)c2ccco2)cc1 [NCGC00016637-10]		-56.9847%	
CC(C)c1ccc2oc(-c3ccc(NC(=O)c4cc5ccccc5o4)cc3)nc2c1 [NCGC00099237-01]	22.4 µM		
Nc1nn(-c2ccccc2)nc1C(=O)OCc1ccccc1Br [NCGC00102940-01]			IC50 [1, 3]: 17.8 µM
Nc1nc2ccc(OC(F)(F)F)cc2s1 [NCGC00015882-15]		-16.2214%	
COc1cccc(COC(=O)c2ccc(-c3nnn(Cc4ccccc4)n3)cc2)c1 [NCGC00102929-01]			IC50 [1, 3]: 17.8 µM
Cc1cc(C(=O)Nc2cc(Oc3ccc4nc(NC(=O)C5CC5)cn4n3)ccc2C)n(C)n1 [NCGC00485933-01]	31.6 µM		
Cn1ccc2c(C(=O)NCCc3cnc[nH]3)nc(-c3cnn(Cc4ccccc4)c3)cc21 [NCGC00411713-01]	35.5 µM		
CC(=O)Nc1cccc(-c2nc(-c3c(C)noc3C)cc3c2cc(-c2ccccc2)n3C)c1 [NCGC00417192-01]	8.91 µM		
Cc1ccc(C(=O)Oc2ccc(C(O)CNC(C)(C)C)cc2OC(=O)c2ccc(C)cc2)cc1 (stereo not drawn) [NCGC00253593-01]			IC50 [1, 3]: 14.1 µM
COC(=O)Cc1c(C)c2ccc3c(c2oc1=O)CN(Cc1ccc(C)cc1)CO3 [NCGC00116348-01]	15.8 µM		
Cn1nnc(-c2ccc(-c3ccc(N4C[C@H](COP(=O)(O)O)OC4=O)cc3F)cn2)n1 [NCGC00482851-02]	35.5 µM		
CCOC(=O)c1cccc(Nc2ccc3cc(S(=O)(=O)N4CCCCC4)ccc3n2)c1 [NCGC00127764-01]	14.1 µM		
